Laboratory results: PubChem BioAssay (NCI)
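Following 48 hours of exposure in 96-well plates, responses at five concentrations were used to interpolate endpoints linearly. Here, GI50 denotes the concentration required for 50% inhibition of growth. TGI marks complete inhibition of growth.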

Legend:
Experiment in all cases: NCI tumour cell line growth inhibition, 48 h
[1] = system: 786-0 renal
[2] = system: HCT-116 colon
[3] = system: HL-60(TB) leukemia
[4] = system: HOP-62 NSCLC
[5] = system: K-562 leukemia
[6] = system: NCI-H23 lung
[7] = system: RXF 393 renal
[8] = system: SR leukemia
[9] = system: NCI/ADR-RES ovarian
[10] = system: SNB-75 CNS

With `[N-]=[N+]=NC(c1cn(C2CC(O)C(CO)O2)c(=O)[nH]c1=O)C(I)I` (stereo not given) the TGI [1] was > 100 µM, the TGI [2] was > 100 µM and the TGI [3] was > 100 µM. The TGI [4] was > 100 µM, the TGI [5] was > 100 µM and the TGI [6] was > 100 µM. For the same compound, the TGI [7] was > 100 µM and the TGI [8] was > 100 µM.

`N/C(=N\N=C/c1cc(Cl)cc(Cl)c1O)NO` gave a TGI [2] of 12.3 µM, a TGI [3] of 0.694 µM and a TGI [4] of 12.5 µM. The TGI [5] was > 46.3 µM, the TGI [6] was 19.8 µM and the TGI [9] was 26.6 µM. The TGI [7] was 26.8 µM and the TGI [10] was 9.58 µM.

With `O=C(Cc1ccccc1)NN1C(=O)C(Cl)C1c1ccccc1` (stereo not given) the TGI [1] was > 100 µM, the TGI [2] was > 100 µM and the TGI [3] was > 100 µM. The TGI [4] was > 100 µM, the TGI [5] was > 100 µM and the TGI [6] was > 100 µM. For the same compound, the TGI [7] was > 100 µM, the TGI [10] was > 100 µM and the TGI [8] was 55.3 µM.

In the case of `CC[S+](C)c1ccc(-c2c3nc(c(-c4ccc([S+](C)CC)cc4)c4ccc([nH]4)c(-c4ccc([S+](C)CC)cc4)c4nc(c(-c5ccc([S+](C)CC)cc5)c5ccc2[nH]5)C=C4)C=C3)cc1` (stereo not given), the TGI [1] is reported as > 100 µM, the TGI [2] is reported as > 100 µM and the TGI [3] is reported as 49.9 µM. For the same compound, the TGI [4] was 93.5 µM, the TGI [5] was > 100 µM and the TGI [6] was > 100 µM. For the same compound, the TGI [7] was 63.3 µM, the TGI [10] was > 100 µM and the TGI [8] was 87.5 µM.

In the case of `CC(=O)C1C(=O)C(=O)N(c2ccc([N+](=O)[O-])cc2Cl)C1=O` (stereo not given), the TGI [1] is reported as > 100 µM, the TGI [2] is reported as > 100 µM and the TGI [3] is reported as > 100 µM. For the same compound, the TGI [4] was > 100 µM, the TGI [6] was > 100 µM and the TGI [9] was > 100 µM. The TGI [7] was > 100 µM and the TGI [10] was > 100 µM.

With `OC(C1CCCC1=N/N=C1/CCCC1C(O)(C(F)(F)Cl)C(F)(F)Cl)(C(F)(F)Cl)C(F)(F)Cl` (stereo not given) the TGI [1] was > 10 µM, the TGI [2] was > 10 µM and the TGI [3] was > 10 µM. For the same compound, the TGI [4] was > 10 µM, the TGI [5] was > 10 µM and the TGI [6] was > 10 µM. For the same compound, the TGI [9] was > 10 µM, the TGI [7] was > 10 µM and the TGI [10] was > 10 µM.

For `COC(=O)C[C@](O)(CCC(C)(C)O)C(=O)O[C@@H]1C(OC)=C[C@]23CCCN2CCc2cc4c(cc2[C@H]13)OCO4`, the TGI [2] was 0.15 µM, the TGI [3] was 0.743 µM and the TGI [4] was 0.59 µM. For the same compound, the TGI [5] was > 100 µM, the TGI [6] was 0.323 µM and the TGI [9] was 59.8 µM. The TGI [7] was 0.518 µM and the TGI [10] was 0.95 µM.

With `COC(=O)Nc1nc2ccc(NS(=O)(=O)c3ccc(F)cc3)cc2[nH]1` the TGI [1] was > 100 µM, the TGI [2] was > 100 µM and the TGI [3] was 8.45 µM. The TGI [4] was > 100 µM, the TGI [5] was > 100 µM and the TGI [6] was > 100 µM. It also gave a TGI [9] of 54.2 µM, a TGI [7] of 78.6 µM and a TGI [10] of 70.1 µM.

With `CC(=N\N=C\c1ccccn1)/C(C)=N/N=C/c1ccccn1` the TGI [1] was > 100 µM, the TGI [2] was > 100 µM and the TGI [3] was > 100 µM. For the same compound, the TGI [4] was > 100 µM, the TGI [6] was > 100 µM and the TGI [9] was > 100 µM. The TGI [7] was > 100 µM, the TGI [10] was > 100 µM and the TGI [8] was > 100 µM.

For `O=C(/C=C\c1ccc(OCCCCCC[P+](c2ccccc2)(c2ccccc2)c2ccccc2)cc1)c1ccc2c(c1)OCCO2`, the GI50 [3] was 0.326 µM, the TGI [3] was 1.3 µM and the GI50 [5] was 0.494 µM. For the same compound, the TGI [5] was > 100 µM, the GI50 [9] was 4.31 µM and the TGI [9] was > 100 µM. It also gave a GI50 [10] of 0.623 µM, a TGI [10] of 2.72 µM and a GI50 [8] of 0.656 µM. The TGI [8] was 9.07 µM.

In the case of `C=CC[C@@]1(C#N)C[C@H](C[C@]2(C#N)C[C@H](CCl)OC(C)(C)O2)OC(C)(C)O1`, the TGI [1] is reported as > 100 µM, the TGI [2] is reported as > 100 µM and the TGI [3] is reported as > 100 µM. For the same compound, the TGI [4] was > 100 µM, the TGI [5] was > 100 µM and the TGI [6] was > 100 µM. For the same compound, the TGI [7] was > 100 µM, the TGI [10] was > 100 µM and the TGI [8] was > 100 µM.

For `CN(C)Cc1cc(C(=O)/C=C/c2c(F)cccc2Cl)cc(CN(C)C)c1O`, the TGI [1] was 19.5 µM, the TGI [2] was 16.2 µM and the TGI [3] was 8.49 µM. It also gave a TGI [4] of 26.7 µM, a TGI [5] of 26.8 µM and a TGI [6] of 38.3 µM. The TGI [9] was 75.7 µM, the TGI [7] was 12.6 µM and the TGI [10] was 21.8 µM.

With `O=S(=O)(Nc1nc(-c2cc(O)c(O)c(O)c2)cs1)c1ccc(Cl)cc1Cl` the TGI [1] was 46.2 µM, the TGI [2] was 40.1 µM and the TGI [3] was > 100 µM. It also gave a TGI [4] of 35.1 µM, a TGI [5] of 48 µM and a TGI [6] of 74.1 µM. For the same compound, the TGI [9] was 69 µM, the TGI [7] was 71.4 µM and the TGI [10] was 77.6 µM.

Compound `Cc1ccc(N2C(=O)C(O)=C(C(=O)C(C)(C)C)C2c2ccc([N+](=O)[O-])cc2)cc1` (stereo not given) has a TGI [1] of 39.9 µM, a TGI [2] of 29.4 µM and a TGI [3] of 33.9 µM. For the same compound, the TGI [4] was 49.2 µM, the TGI [5] was 85.2 µM and the TGI [6] was 35.2 µM. The TGI [9] was 53.8 µM and the TGI [8] was 24.7 µM.

In the case of `O=c1cc(-c2ccc[nH]2)[nH]c2cc3c(cc12)OCO3`, the TGI [1] is reported as > 100 µM, the GI50 [2] is reported as 29.4 µM and the TGI [2] is reported as > 100 µM. The TGI [3] was 83.6 µM, the TGI [4] was 93.5 µM and the TGI [5] was > 100 µM. The GI50 [7] was 15.9 µM, the TGI [7] was 47 µM and the TGI [10] was 68.9 µM. For the same compound, the TGI [8] was > 100 µM.

With `CCOC(=S)SC/C(=N\OC(C)(C)OC)c1ccccc1` the TGI [1] was > 100 µM, the TGI [2] was 77.5 µM and the TGI [3] was 54.7 µM. The TGI [4] was > 100 µM, the TGI [5] was 56 µM and the TGI [6] was > 100 µM. For the same compound, the TGI [9] was > 100 µM, the TGI [7] was 70 µM and the TGI [8] was 35.9 µM.

With `CCCCCCCCCCOC1C(C(C)OCCCN(C)C)OC2OC3(CCCCC3)OC21` (stereo not given) the TGI [1] was 30.9 µM, the TGI [2] was 26.4 µM and the TGI [3] was 20.7 µM. It also gave a TGI [4] of 31.4 µM, a TGI [5] of 12.6 µM and a TGI [6] of 23.8 µM. The TGI [9] was 32.2 µM, the TGI [7] was 31 µM and the TGI [10] was 20.1 µM.

`CN1CCN(CCCCNc2cc3c4ccccc4c(NCCCCN4CCN(C)CC4)cc3c3ccccc23)CC1` gave a TGI [1] of 3.48 µM, a TGI [2] of 2.13 µM and a TGI [3] of 14.9 µM. For the same compound, the TGI [4] was 7.72 µM, the TGI [5] was 6.8 µM and the TGI [9] was 21.6 µM. It also gave a TGI [7] of 3.13 µM and a TGI [10] of 7.8 µM.

`C[N+](C)(N)Cc1csc(-c2ccc(Cl)cc2)n1` was tested, and the TGI [1] was > 100 µM, the TGI [2] was > 100 µM and the TGI [4] was > 100 µM. For the same compound, the TGI [5] was > 100 µM, the TGI [6] was > 100 µM and the TGI [9] was > 100 µM. For the same compound, the TGI [7] was > 100 µM, the TGI [10] was > 100 µM and the TGI [8] was > 100 µM.

In the case of `FC(F)(F)c1nc2cc(SSc3cc4nc(C(F)(F)F)[nH]c4cc3Cl)c(Cl)cc2[nH]1`, the TGI [1] is reported as > 100 µM, the TGI [2] is reported as > 100 µM and the TGI [3] is reported as > 100 µM. For the same compound, the TGI [4] was > 100 µM, the TGI [5] was > 100 µM and the TGI [6] was > 100 µM. The TGI [9] was > 100 µM and the TGI [7] was > 100 µM.
